# Biological target: T1, Signal transducer and activator of transcription 3 [702-738,740-752] (Homo sapiens, UniProt P40763)
# T1 construct: 702-738,740-752
# Experiment: dose response, counter-screen for STAT1 inhibitor project (AID 1409)
# T1 sequence (P40763 as listed by the source): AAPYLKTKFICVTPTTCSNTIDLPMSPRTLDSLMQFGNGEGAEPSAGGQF
smiles,measurement,value
CCN1C(=O)C(=CNNC(=O)c2ccncc2)C(=O)N(CC)C1=S [SMR000218837],IC50,> 55.7 µM

# Source: BindingDB's records for doi:10.7270/Q2PZ577D (The Scripps Research Institute Molecular Screening Center, 2008)
